The source made the active and inactive calls.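 The calls were made as follows: active = EC50 at or below 10 µM; inactive = EC50 above 10 µM.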
What follows are compounds tested against Nuclear hormone receptor DAF-12 (Heterodera glycines) (assay: H. glycines DAF-12 receptor agonist potency, dose response, cell-based, luminescence, HEK293 (AID 743059)). Settings: HEK293 hgDAF-12 reporter, luciferase luminescence.
In the case of `Oc1ccc(N=Nc2ccc3ccccc3c2)cc1`, the EC50 is reported as > 67.5 µM (inactive). With `COc1ccc(/C=C2\SC(=O)N(CCNC(=O)C3CC4C=CC3C4)C2=O)cc1` (stereo unspecified) the EC50 was > 67.5 µM (inactive). `Fc1ccccc1CSc1ncnc2c1ncn2C1CCCCO1` (stereo unspecified) was tested, and the EC50 was > 67.6 µM (inactive). `Cc1ccc(CN2CCN(CC(C)C)C(CCO)C2)s1` (stereo unspecified) was tested, and the EC50 was > 67.6 µM (inactive). With `Cc1ccc(Nc2ncccc2C(N)=O)cc1[N+](=O)[O-]` the EC50 was > 67.6 µM (inactive). With `O=C(Nc1ccc(Cl)cn1)c1cc2ccccc2o1` the EC50 was > 67.5 µM (inactive). `Clc1ccccc1Nc1nnc(-c2ccncc2)s1` was tested, and the EC50 was > 67.5 µM (inactive). In the case of `Cc1nc2nc(-c3cccs3)[nH]c2cc1Br`, the EC50 is reported as > 67.5 µM (inactive). With `Cc1cc(C)n2c(NC3CCCC3)c(-c3cc4ccccc4o3)nc2n1` the EC50 was > 67.5 µM (inactive). With `OCCN1CCN(c2cnc(-c3ccsc3)cn2)CC1` the EC50 was > 67.5 µM (inactive). `Cc1ccc(/C(N)=N/OC(=O)c2ccco2)cc1` was tested, and the EC50 was > 67.5 µM (inactive). In the case of `COc1cccc(/C=C/c2ccc3cccc(O)c3n2)c1`, the EC50 is reported as > 67.5 µM (inactive). With `Cc1cc(C)nc(-n2nc(C)c(Sc3ccc(F)cc3)c2N)n1` the EC50 was > 67.5 µM (inactive). `Cc1ccc(S(=O)(=O)/N=C(/NC(=S)Nc2ccccc2)c2ccccc2)cc1` was tested, and the EC50 was > 67.5 µM (inactive). In the case of `c1ccc(Nc2nc(-c3ccccc3)ns2)cc1`, the EC50 is reported as > 67.6 µM (inactive). `Cn1c(NCc2c[nH]c3ccccc23)nc2ccccc21` was tested, and the EC50 was > 67.5 µM (inactive). In the case of `O=c1c2cc(-c3ccccc3)sc2nc2n1CCC2`, the EC50 is reported as > 67.5 µM (inactive). `CC/C(=N\NC(=O)c1ccoc1C)c1ccc(C)o1` was tested, and the EC50 was > 67.5 µM (inactive). With `COc1ccc2[nH]c(C(=O)Nc3cccc(C)n3)cc2c1` the EC50 was > 67.5 µM (inactive). For `CCOc1ccc2nc(NC(=O)Nc3cccs3)sc2c1`, the EC50 was > 67.5 µM (inactive). `Cc1cc(C(=O)NC2=NCCS2)cs1` was tested, and the EC50 was > 67.5 µM (inactive). With `CS(=O)(=O)c1ccc2nc(NC(=O)Nc3ccccc3F)sc2c1` the EC50 was > 67.5 µM (inactive). For `Cc1ccnc(NC(=O)CCNS(=O)(=O)c2ccc(C)c(C)c2)c1`, the EC50 was > 67.6 µM (inactive). For `Cc1ccsc1/C=N/NC(=O)c1sccc1C`, the EC50 was > 67.5 µM (inactive). For `Cc1ccc(NC(=S)N/C(=N/S(=O)(=O)c2ccccc2)c2ccccc2)cc1`, the EC50 was > 67.5 µM (inactive). In the case of `O=[N+]([O-])c1ccc2c(c1)Nc1nc3ccccc3nc1N2`, the EC50 is reported as > 67.5 µM (inactive). With `COc1ccccc1-c1noc(-c2cccs2)n1` the EC50 was > 67.5 µM (inactive). `Cc1cc2ncc(-c3ccccc3)nc2cc1C` was tested, and the EC50 was > 67.5 µM (inactive). In the case of `CCn1c(O)c(C=Nc2ccccc2)sc1=S`, the EC50 is reported as > 67.5 µM (inactive). `Nc1nn(-c2cccc(F)n2)cc1-c1ccccc1` was tested, and the EC50 was > 67.5 µM (inactive). For `Cc1cccc(/C=C\c2nc3ccccc3c(=O)[nH]2)c1`, the EC50 was > 67.5 µM (inactive). `COc1ccc2oc3cc(NCCN(C)C)ccc3c(=O)c2c1` was tested, and the EC50 was “inactive”. `Nc1ncc(Br)cc1N=Cc1ccccc1` was tested, and the EC50 was > 67.5 µM (inactive). For `Cc1ccc(/C(N)=N/OC(=O)c2cccs2)cc1`, the EC50 was > 67.6 µM (inactive). With `O=C(NC1CCC1)c1ccc(C#CC2CC2)cn1` the EC50 was > 67.5 µM (inactive). For `C=CCN1C=CC(=C/C=C(/C#N)C(=O)OCC)C=C1`, the EC50 was > 67.5 µM (inactive). For `CCc1sc(C(=O)Nc2ncccc2O)cc1C`, the EC50 was “inactive”. For `O=C(NNCc1ccccc1)c1ccccn1`, the EC50 was > 67.6 µM (inactive). With `Cc1scc(C(=O)N/N=C/c2ccsc2)c1C` the EC50 was > 67.6 µM (inactive). In the case of `CC(C)C(N)c1csc(Nc2nncc3ccccc23)n1` (stereo unspecified), the EC50 is reported as > 67.1 µM (inactive). `Cc1ccc(-c2nc(-c3ccncc3)no2)cc1C` was tested, and the EC50 was > 67.5 µM (inactive). For `C/C(=N/OCc1ccc(Br)cc1)c1ccccn1`, the EC50 was > 67.6 µM (inactive). `Cc1ccc(N=Nc2ccc(O)cc2)c(Br)c1` was tested, and the EC50 was > 67.5 µM (inactive). In the case of `C#CCNC(=O)C[C@H]1C[C@@]2(C(=O)OC)C(=C[C@H](C(C)C)O[C@@H]2C2CC2)N(CCCCCCCC)C1=O`, the EC50 is reported as > 67.5 µM (inactive). For `CCSCC(C)(C)n1[nH]c2ccccc2c1=O`, the EC50 was > 67.6 µM (inactive). In the case of `O=c1c2ccccc2nnn1CCc1ccccc1`, the EC50 is reported as > 67.4 µM (inactive). With `Cc1c(C(=O)OC2CCC(C)CC2)[nH]c2c1C(=O)CCC2` (stereo unspecified) the EC50 was > 67.5 µM (inactive). With `CCS(=O)(=O)Nc1cc(-c2nc3cccnc3s2)ccc1C` the EC50 was > 67.5 µM (inactive). For `COc1ccc(Oc2cnn(-c3ccccc3)c(=O)c2Br)cc1`, the EC50 was > 67.5 µM (inactive). With `Oc1ccccc1-c1cc(-c2ccc3c(c2)OCCO3)n[nH]1` the EC50 was > 67.6 µM (inactive). For `Cc1csc(NC(=O)c2ccc3ccccc3n2)n1`, the EC50 was > 67.6 µM (inactive). Compound `O=C(NCCc1ccccc1)c1cc(-c2ccco2)on1` has an EC50 of 7.6 µM. With `C/C(=N\NC(=O)OC(C)(C)C)c1ccc[nH]1` the EC50 was > 67.6 µM (inactive). With `Cc1cccc(Nc2n[nH]c(C)c2[N+](=O)[O-])c1` the EC50 was > 67.5 µM (inactive). In the case of `CCOc1ccc(-c2c(=O)n(O)c3ccccc3[n+]2[O-])cc1`, the EC50 is reported as “inactive”. `Cc1cc(C(=O)CSc2ncccn2)c(C)n1Cc1ccco1` was tested, and the EC50 was > 67.5 µM (inactive). In the case of `Cc1cccc(/C(N)=N/OC(=O)c2cccs2)c1`, the EC50 is reported as > 67.5 µM (inactive). For `O=C(CCCc1ccccc1)NC12CC3CC(CC(C3)C1)C2`, the EC50 was > 67.5 µM (inactive). For `N/C(=N\OC(=O)c1cc(Br)ccc1Cl)c1ccccn1`, the EC50 was > 67.5 µM (inactive). `CCOC(=O)c1c(C)oc2c1cc(O)c1ccccc12` was tested, and the EC50 was > 67.5 µM (inactive). With `Oc1[nH]c2ccccc2c1N=Nc1ccccc1F` the EC50 was > 67.6 µM (inactive). For `O=C1/C(=C\c2cccs2)Sc2ccc3ccccc3c21`, the EC50 was > 67.5 µM (inactive). In the case of `Cc1cc(O)ccc1Nc1cc(-c2cccc(N(C)C)c2)ncn1`, the EC50 is reported as > 67.5 µM (inactive). With `c1ccc(Nc2nc(-c3cccnc3)cs2)nc1` the EC50 was > 67.6 µM (inactive). `Clc1ccc(OCCSc2ncccn2)c(Br)c1` was tested, and the EC50 was > 67.5 µM (inactive). With `Cc1cc(C(=O)CSc2cccc[n+]2[O-])c(C)n1-c1ccccc1` the EC50 was > 67.5 µM (inactive). For `COc1cccc(-c2nc3ccccc3s2)c1`, the EC50 was > 67.5 µM (inactive). In the case of `CCOC(=O)c1cnc(SCc2ccccc2)nc1N`, the EC50 is reported as > 67.5 µM (inactive). With `N=C1c2ccccc2CN1CC(=O)c1ccccc1` the EC50 was > 67.6 µM (inactive). `Cc1ccc2c(c1)N=C(c1ccccc1)CC(C(Cl)Cl)=N2` was tested, and the EC50 was > 67.5 µM (inactive). `Cc1cc(OCc2cc(C(=O)NCc3cc(C(C)C)no3)no2)cc(C)c1Cl` was tested, and the EC50 was > 67.5 µM (inactive). With `Nc1c(OS(=O)(=O)c2ccccc2)cccc1OS(=O)(=O)c1ccccc1` the EC50 was > 67.5 µM (inactive). In the case of `Cc1nc2sc(-c3ccccc3)nn2c(=O)c1Br`, the EC50 is reported as > 67.5 µM (inactive). In the case of `C=CCN1C(=O)[C@@H](CC(=O)N2CCSCC2)[C@]2(C(=O)OC)CCCCC=C12`, the EC50 is reported as > 67.5 µM (inactive). In the case of `Cn1c(SCc2ccccc2F)nc2cccnc21`, the EC50 is reported as > 67.5 µM (inactive). For `O=C(N/N=C/c1cccs1)c1n[nH]c2c1CCC2`, the EC50 was > 67.5 µM (inactive). `Cc1ccc(/C=N/NC(=O)c2ccoc2C)s1` was tested, and the EC50 was > 67.6 µM (inactive). `CN(C)c1cccc(-c2cnc(N3CCC(C(N)=O)CC3)s2)c1` was tested, and the EC50 was > 67.5 µM (inactive). For `CSc1ccc(/C=N/Nc2ccc(Cl)c(C(=O)O)c2)cc1`, the EC50 was > 67.5 µM (inactive). In the case of `Cc1ccc(-c2nc(Nc3ccccc3)n[nH]2)cc1`, the EC50 is reported as > 67.5 µM (inactive). `Cc1cc2nn(-c3ccc(F)cc3)nc2cc1N` was tested, and the EC50 was > 67.5 µM (inactive). `Clc1cccc(-c2nnc(-c3ccccc3)o2)c1` was tested, and the EC50 was > 67.5 µM (inactive). `COCCNC(=O)/C(C#N)=C/c1cc(C)n(-c2ccc(C)cc2)c1C` was tested, and the EC50 was > 67.5 µM (inactive). `Cc1cc(NC(=O)c2nn3cccnc3c2Cl)no1` was tested, and the EC50 was > 67.5 µM (inactive). With `Oc1cccc(/C=C/c2ccc3cccc(O)c3n2)c1` the EC50 was > 67.6 µM (inactive). In the case of `Cc1ccc(N/C=C(/C#N)c2ccsc2)cc1C`, the EC50 is reported as > 67.5 µM (inactive). In the case of `Cc1ccc(/C=N/NC(=O)c2ccccn2)s1`, the EC50 is reported as > 67.6 µM (inactive). For `Cc1c(C(=O)Nc2nccs2)oc2ccccc12`, the EC50 was > 67.6 µM (inactive). In the case of `N=C1/C(=C/c2ccc(OCc3ccccc3F)cc2)C(=O)N=C2SC(CC(=O)N3CCOCC3)=NN12`, the EC50 is reported as > 67.5 µM (inactive). `Cc1ccc(-c2onc3ccc(C(=O)O)cc23)cc1` was tested, and the EC50 was > 67.6 µM (inactive). In the case of `N#C/C(=N\Nc1ccc(Cl)cc1)C(=N)N1CCCCCC1`, the EC50 is reported as > 67.5 µM (inactive). For `Cc1ccc2nc(C)/c(=N\O)c(C)nc2c1`, the EC50 was > 67.6 µM (inactive). In the case of `CCCCCc1nnc(NC(=O)C2=COCCO2)s1`, the EC50 is reported as > 67.6 µM (inactive). With `COC1=C/C(=C/c2c(O)c(C#N)c3ccccn23)C=CC1=O` the EC50 was > 67.5 µM (inactive). With `O=C(Nc1ccn(Cc2ccccc2)n1)c1n[nH]c([N+](=O)[O-])c1Cl` the EC50 was > 67.5 µM (inactive). In the case of `O=C(NCC1CCCO1)c1cc(-c2ccccc2F)no1` (stereo unspecified), the EC50 is reported as “inactive”. For `COc1cccc(-c2noc(-c3cccs3)n2)c1`, the EC50 was > 67.6 µM (inactive). In the case of `c1csc(-c2nnc(-c3ccc(N4CCOCC4)cc3)o2)c1`, the EC50 is reported as > 67.5 µM (inactive). `c1ccc(CSc2ccc(-c3ccccn3)nn2)nc1` was tested, and the EC50 was > 67.5 µM (inactive). In the case of `Cc1cc(N=Nc2ccc3ccccc3c2)ccc1O`, the EC50 is reported as > 67.6 µM (inactive). In the case of `NC(=Nc1ccccc1)NC(=O)c1nc(Cl)c(N)nc1N`, the EC50 is reported as > 67.5 µM (inactive). With `O=c1c2ccccc2nnn1CSc1ccccc1F` the EC50 was > 67.5 µM (inactive). `N#Cc1c(N)nc(N)nc1Nc1ccc(Br)cc1` was tested, and the EC50 was > 67.4 µM (inactive). In the case of `C/C(=N/NC(=O)c1cc(C(C)C)[nH]n1)c1cccs1`, the EC50 is reported as > 67.6 µM (inactive). In the case of `CC(=Nc1ccccc1)c1sc2ccccc2c1O`, the EC50 is reported as > 67.6 µM (inactive). In the case of `c1ccc(CCSc2nccn2-c2ccccc2)cc1`, the EC50 is reported as > 67.6 µM (inactive). In the case of `Oc1ccccc1-c1cc(-c2ccc(Cl)cc2)n[nH]1`, the EC50 is reported as > 67.5 µM (inactive). In the case of `COc1cccc(-c2nc(-c3ccc(Br)o3)no2)c1`, the EC50 is reported as > 67.5 µM (inactive). For `O=C(Nc1ccccn1)c1csc2c1CCCC2`, the EC50 was > 67.5 µM (inactive). `Cc1nc(N)sc1N=Nc1ccc(Br)cc1` was tested, and the EC50 was > 67.5 µM (inactive). `Cc1ccc(-c2csc(NC(=O)/C=C/c3ccco3)c2C(=O)O)cc1` was tested, and the EC50 was > 67.6 µM (inactive).

Source: PubChem BioAssay AID743059 (The Scripps Research Institute Molecular Screening Center, 2013)
